Assay results reported in PubChem BioAssay AID256 (DTP/NCI, 2004).
Where “and” joins values, the source holds several entries; their conditions need not be identical. Equal values may be shown once. Inconclusive results and toxic doses are left out.

Test system: CD2F1 mice, L1210 leukemia ip, survival T/C
Assay: NCI In Vivo Anticancer Drug Screen. Data for tumor model L1210 Leukemia (intraperitoneal) in CD2F1 (CDF1) mice
Conditions: endpoint: mean survival time, higher = longer survival
How it was run: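 Ratio T/C, where T is the treated-group value and C the vehicle-dosed control value, from mice implanted with a transplantable tumor.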

[1] = dose: 100.0 mg/kg/injection, schedule: Q04DX003 (ip), vehicle: saline with Tween-80
[2] = dose: 200.0 mg/kg/injection, schedule: Q04DX003 (ip), vehicle: saline with Tween-80
[3] = dose: 400.0 mg/kg/injection, schedule: Q04DX003 (ip), vehicle: saline with Tween-80

O=C(NNc1ccccc1)C(F)(F)F
T/C (dose: 25.0 mg/kg/injection, schedule: Q01DX009 (ip), vehicle: saline with Tween-80): 107 % of control | T/C (dose: 50.0 mg/kg/injection, schedule: Q01DX009 (ip), vehicle: saline with Tween-80): 101 % of control | T/C (dose: 100.0 mg/kg/injection, schedule: Q04DX003 (ip), vehicle: acetone): 93 % of control

O=C(O)c1ccc(C(=O)O)o1.[NH-]C1CCCCC1[NH-].[Pt+2]
T/C (dose: 1.25 mg/kg/injection, schedule: Q04DX003 (ip), vehicle: dextrose): 122 % of control and 102 % of control | T/C (dose: 2.5 mg/kg/injection, schedule: Q04DX003 (ip), vehicle: dextrose): 111 % of control and 112 % of control | T/C (dose: 5.0 mg/kg/injection, schedule: Q04DX003 (ip), vehicle: dextrose): 117 % of control | T/C (dose: 20.0 mg/kg/injection, schedule: Q04DX003 (ip), vehicle: dextrose): 183 % of control | T/C (dose: 40.0 mg/kg/injection, schedule: Q04DX003 (ip), vehicle: dextrose): 94 % of control

CSc1ncnc2c1ccn2C1OC(COP(=O)(O)O)C(O)C1O (centres undefined)
T/C (dose: 12.5 mg/kg/injection, schedule: Q01DX005 (ip), vehicle: water): 105 % of control | T/C (dose: 25.0 mg/kg/injection, schedule: Q01DX005 (ip), vehicle: water): 108 % of control and 111 % of control | T/C (dose: 50.0 mg/kg/injection, schedule: Q01DX005 (ip), vehicle: water): 114 % of control and 109 % of control | T/C (dose: 150.0 mg/kg/injection, schedule: Q01DX005 (ip), vehicle: water): 121 % of control

NC(=S)N/N=C/c1ccc([N+](=O)[O-])cc1
T/C (dose: 75.0 mg/kg/injection, schedule: Q01DX001 (ip), vehicle: saline with Tween-80): 95 % of control

CN(CCC#N)C(=O)Nc1ccc(Cl)cc1
T/C (dose: 100.0 mg/kg/injection, schedule: Q04DX002 (ip), vehicle: other): 106 % of control | T/C (dose: 200.0 mg/kg/injection, schedule: Q04DX002 (ip), vehicle: other): 101 % of control | T/C (dose: 400.0 mg/kg/injection, schedule: Q04DX002 (ip), vehicle: other): 106 % of control

C=CCOCC(O)C[As](=O)(O)c1ccc(Cl)cc1 (centres undefined)
T/C (dose: 6.25 mg/kg/injection, schedule: Q04DX003 (ip), vehicle: saline with Tween-80): 109 % of control | T/C (dose: 12.5 mg/kg/injection, schedule: Q04DX003 (ip), vehicle: saline with Tween-80): 111 % of control

Cc1nccc2cc3c(cc12)Cc1ccccc1-3
T/C (dose: 100.0 mg/kg/injection, schedule: Q04DX002 (ip), vehicle: saline with Tween-80): 88 % of control | T/C (dose: 200.0 mg/kg/injection, schedule: Q04DX002 (ip), vehicle: saline with Tween-80): 92 % of control | T/C (dose: 400.0 mg/kg/injection, schedule: Q04DX002 (ip), vehicle: saline with Tween-80): 88 % of control

CCOC1=C([N+](=O)[O-])C(c2ccccc2)NC1=O (centres undefined)
T/C [1]: 95 % of control | T/C [2]: 95 % of control | T/C [3]: 89 % of control

Nc1nc(SCc2ccccc2[N+](=O)[O-])c2[nH]cnc2n1
T/C (dose: 125.0 mg/kg/injection, schedule: Q01DX Z (ip), vehicle: carboxymethylcellulose (CMC)): 102 % of control | T/C (dose: 250.0 mg/kg/injection, schedule: Q01DX Z (ip), vehicle: carboxymethylcellulose (CMC)): 104 % of control | T/C (dose: 500.0 mg/kg/injection, schedule: Q01DX Z (ip), vehicle: carboxymethylcellulose (CMC)): 116 % of control | T/C (dose: 1000.0 mg/kg/injection, schedule: Q01DX Z (ip), vehicle: carboxymethylcellulose (CMC)): 112 % of control

O=CNc1ccc(I)cc1
T/C [1]: 106 % of control | T/C [2]: 98 % of control | T/C [3]: 101 % of control

C#CCP(=O)(OCC)OCC
T/C (dose: 100.0 mg/kg/injection, schedule: Q01DX009 (ip), vehicle: saline): 95 % of control | T/C (dose: 200.0 mg/kg/injection, schedule: Q01DX009 (ip), vehicle: saline): 95 % of control | T/C (dose: 400.0 mg/kg/injection, schedule: Q01DX009 (ip), vehicle: saline): 94 % of control

CCCCCCCCC(Sc1nn(C2OC(COC(=O)c3ccccc3)C(OC(=O)c3ccccc3)C2OC(=O)c2ccccc2)c(=O)[nH]c1=O)C(=O)OCC (centres undefined)
T/C (dose: 12.5 mg/kg/injection, schedule: Q01DX005 (ip), vehicle: distilled water + Tween-80): 101 % of control | T/C (dose: 25.0 mg/kg/injection, schedule: Q01DX005 (ip), vehicle: distilled water + Tween-80): 100 % of control | T/C (dose: 50.0 mg/kg/injection, schedule: Q01DX005 (ip), vehicle: distilled water + Tween-80): 100 % of control | T/C (dose: 100.0 mg/kg/injection, schedule: Q01DX005 (ip), vehicle: distilled water + Tween-80): 97 % of control | T/C (dose: 200.0 mg/kg/injection, schedule: Q01DX005 (ip), vehicle: distilled water + Tween-80): 97 % of control
